Measured values: US9428499B2, “Heterocyclyl compounds as MEK inhibitors” (LUPIN LIMITED, priority 2012, dated 2016)
Like-named read-outs stand apart in the source and are kept apart here.

Legend:
ERK phosphorylation = assay: Analysis of ERK phosphorylation (Alphascreen SureFire Phospho-ERK 1/2); format: cell-based, human and mouse; settings: read-out: Minimum concentration (nM) required for ≧80% inhibition of pERK
Method in brief: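 Human melanoma and human and mouse colon cancer cells were exposed to compounds for 1 h. Phospho-ERK1/2 was read by AlphaScreen SureFire. Percent inhibition was calculated from RFU relative to vehicle-treated and lysis-buffer controls.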

[1] = tested on: MEK phosphorylation (S218 and S222); assay: Analysis of B-Raf-mediated MEK phosphorylation (Alphascreen SureFire Phospho-MEK); format: cell-based, human; settings: read-out: % Inhibition of MEK phosphorylation, 1 h
Method: This assay was carried out with human melanoma cells. Cells were treated for 1 h with various concentrations of test compounds. MEK phosphorylation (S218 and S222) analysis was performed using the Alphascreen SureFire Phospho-MEK Kit (Perkin Elmer), by following the manufacturer's instructions. % inhibition of […] phosphorylation was determined as: 100−{(RFU test−RFU lysis buffer control)/(RFU vehicle treated control−RFU lysis buffer control)}×100.

[2] = cells treated for 1 h, human melanoma cells, human and mouse colon cancer cells
[3] = 1 nM, human melanoma cells, read-out: % Inhibition of MBK phosphorylation
[4] = 10 nM, human melanoma cells, read-out: % Inhibition of MBK phosphorylation
[5] = 100 nM, human melanoma cells, read-out: % Inhibition of MBK phosphorylation

| SMILES | IC80 (ERK phosphorylation; [2]) [nM] | inhibition at 0.001 µM [1, 3] [%] | inhibition at 0.01 µM [1, 4] [%] | inhibition at 0.1 µM [1, 5] [%] | IC80 (ERK phosphorylation; 1 h) [nM] | inhibition at 0.001 µM ([1]; Homo sapiens) [%] | inhibition at 0.01 µM ([1]; Homo sapiens) [%] | inhibition at 0.1 µM ([1]; Homo sapiens) [%] |
| --- | --- | --- | --- | --- | --- | --- | --- | --- |
| Cc1c(=O)n(C)c(Nc2ccc(I)cc2F)c2c(=O)n(C3CC3)c(=O)n(-c3cccc(C(=O)NC4CC4)c3)c12 [Compound 37, N-cyclopropyl-3-(3-cyclopropyl-5-((2-fluoro-4-iodophenyl)amino)-6,8-dimethyl-2,4,7-trioxo-3,4,6,7-tetrahydropyrido[4,3-d]pyrimidin-1(2H)-yl)benzamide] | 1 to 3 | 54.7 | 85.9 | 92.4 |  |  |  |  |
| Cc1c(=O)n(C)c(Nc2ccc(I)cc2F)c2c(=O)n(C)c(=O)n(-c3cccc(OCC(N)=O)c3)c12 [Compound 57, 2-(3-(5-((2-fluoro-4-iodophenyl)amino)-3,6,8-trimethyl-2,4,7-trioxo-3,4,6,7-tetrahydropyrido[4,3-d]pyrimidin-1(2H)-yl)phenoxy)acetamide] | 1 to 3 | 63.3 | 76.4 | 83 |  |  |  |  |
| Cc1c(=O)n(C)c(Nc2ccc(I)cc2F)c2c(=O)[nH]c(=O)n(-c3cccc(C4(C(N)=O)CC4)c3)c12 [Compound 77, 1-(3-(5-((2-fluoro-4-iodophenyl)amino)-6,8-dimethyl-2,4,7-trioxo-3,4,6,7-tetra hydropyrido[4,3-d]pyrimidin-1(2H)-yl)phenyl)cyclopropanecarboxamide] |  |  |  |  | 0.1 to 0.9 | 49 | 67.8 | 85.5 |
| Cc1c(=O)n(C)c(Nc2ccc(I)cc2F)c2c(=O)n(C3CC3)c(=O)n(-c3cccc(C4(C(N)=O)CC4)c3)c12 [Compound 78, 1-(3-(3-cyclopropyl-5-((2-fluoro-4-iodophenyl)amino)-6,8-dimethyl-2,4,7-trioxo-3,4,6,7-tetrahydropyrido[4,3-d]pyrimidin-1(2H)-yl)phenyl)cyclopropanecarboxamide] | 0.1 to 0.9 | 42.6 | 56.7 | 75.4 |  |  |  |  |
